Data from paper PMC6868923 (EXCLI Journal, 2019).
Several values for one entry are separate records, joined by “and”; a condition that tells them apart may be missing. Identical values can stand only once. Like-named read-outs stand apart in the source and are kept apart here.

Tests used:
[1] = system: HepG2.2.15 cells
[2] = system: HepG2.2.15 and Vero cells
[3] = system: Hepatitis B virus (HBV); test: microbe, parasite or virus in culture; assay type: cell-based; conditions: read-out: EC50 HBV
[4] = system: poliovirus type 1 Sabin strain (PV-1); test: microbe, parasite or virus in culture; assay type: cell-based; conditions: for EC50 / inhibition at 0.0001 µM / inhibition at 0.001 µM / inhibition at 0.01 µM / inhibition at 0.1 µM / inhibition at 1 µM: Enterovirus C, Vero; for EC50: 24 h, read-out: EC50 PV-1; for inhibition at 0.0001 µM / inhibition at 0.001 µM / inhibition at 0.01 µM / inhibition at 0.1 µM / inhibition at 1 µM: N 3, read-out: Inhibition percent relative to control, Polio virus (Median)
[5] = in vitro; conditions: human (HepG2.2.15); African green monkey (Vero)
[6] = in vitro; conditions: human
[7] = system: Herpes simplex type 1 F strain (HSV-1); test: microbe, parasite or virus in culture; assay type: cell-based, Herpes Simplex Virus type 1; conditions: for EC50 / inhibition at 10 µM / inhibition at 0.0001 µM / inhibition at 0.001 µM / inhibition at 0.01 µM / inhibition at 0.1 µM / inhibition at 1 µM: Human alphaherpesvirus 1, Vero; for EC50: 48 h, read-out: EC50 HSV-1; for inhibition at 10 µM: read-out: Inhibitory effect against HSV-1; for inhibition at 0.0001 µM / inhibition at 0.001 µM / inhibition at 0.01 µM / inhibition at 0.1 µM / inhibition at 1 µM: N 3, read-out: Inhibition percent relative to control, Herpes simplex virus (Median)
[8] = Hepatitis B virus, HepG2.2.15, 72 h

Q: For 24,25-dehydropollinastanol, which CC50 [1] is on record?
A: The CC50 was > 100 µM.

Q: What about the CC50 [2] of the same molecule?
A: Its CC50 is > 100 µM.

Q: For `CC(C)CCC[C@@H](C)[C@H]1CC[C@H]2[C@@H]3CC[C@H]4C[C@@H](O)CC[C@]4(C)[C@H]3CC[C@]12C` [5-α-cholestan-3-β-ol], which CC50 [1] is on record?
A: The CC50 was > 100 µM.

Q: And the CC50 [2]?
A: The CC50 was > 100 µM.

Q: For `CC(C)CCC[C@@H](C)[C@H]1CC[C@H]2C3=CC[C@H]4C[C@@H](O)CC[C@]4(C)[C@H]3CC[C@]12C` [5-α-cholestan-7-en3-β-ol], which CC50 [1] is on record?
A: Its CC50 is > 100 µM.

Q: What about the CC50 [2] of the same molecule?
A: Its CC50 is > 100 µM.

Q: For `C[C@@H]1O[C@@H](Oc2c(-c3cc(O)c(O)c(O)c3)oc3cc(O)cc(O)c3c2=O)[C@H](O)[C@H](O)[C@H]1O` [MyrG, myricetin rhamnoside], which CC50 [1] is on record?
A: Its CC50 is > 100 µM.

Q: What about the CC50 [2] of the same molecule?
A: The CC50 was > 100 µM.

Q: And the EC50 [3]?
A: Its EC50 is 0.015 µM.

Q: For `C[C@@H]1O[C@@H](OC[C@H]2O[C@H](Oc3c(-c4cc(O)c(O)c(O)c4)oc4cc(O)cc(O)c4c3=O)[C@H](O)[C@@H](O)[C@H]2O)[C@H](O)[C@H](O)[C@H]1O` [MyrGG, myricetin-3-α-O-ramnosil (1→6)-α-galactoside], which CC50 [1] is on record?
A: The CC50 was > 100 µM.

Q: And the CC50 [2]?
A: Its CC50 is > 100 µM.

Q: And the EC50 [3]?
A: The EC50 was 12 µM.

Q: For `COc1ccc(-c2oc3c(OC)c(OC)c(OC)c(O)c3c(=O)c2OC)cc1O` [PMF, 5,3'-dihydroxy-3,6,7,8,4'-pentamethoxyflavone], which “Plaque forming units, Polio virus” value ([4]; 0.0001 µM) is on record?
A: Its value is 91 PFU and 92 PFU and 89 PFU.

Q: What about the “Plaque forming units, Polio virus” value ([4]; 0.001 µM) of the same molecule?
A: The value was 81 PFU and 80 PFU and 78 PFU.

Q: What about the “Plaque forming units, Polio virus” value ([4]; 0.01 µM) of the same molecule?
A: The value was 45 PFU and 41 PFU and 48 PFU.

Q: What about the “Plaque forming units, Polio virus” value ([4]; 0.1 µM) of the same molecule?
A: The value was 11 PFU and 16 PFU and 10 PFU.

Q: And the EC50 [4]?
A: Its EC50 is 1 ± 0.05 µM.

Q: And the inhibition at 0.0001 µM ([4]; 0.0001 µM)?
A: The inhibition at 0.0001 µM was 0.1%.

Q: What about the inhibition at 0.001 µM ([4]; 0.001 µM) of the same molecule?
A: Its inhibition at 0.001 µM is 11.5%.

Q: And the inhibition at 0.01 µM ([4]; 0.01 µM)?
A: Its inhibition at 0.01 µM is 50.4%.

Q: And the inhibition at 0.1 µM ([4]; 0.1 µM)?
A: The inhibition at 0.1 µM was 86.3%.

Q: And the inhibition at 1 µM [4]?
A: Its inhibition at 1 µM is 97.8%.

Q: What about the CC50 [5] of the same molecule?
A: The CC50 was > 100 µM.

Q: And the CC50 [6]?
A: The CC50 was 10 ± 0.1 µM.

Q: And the “Plaque forming units, Herpes simplex virus” value ([7]; 0.0001 µM)?
A: The value was 98 PFU and 91 PFU and 90 PFU.

Q: And the “Plaque forming units, Herpes simplex virus” value ([7]; 0.001 µM)?
A: Its value is 82 PFU and 68 PFU and 76 PFU.

Q: And the “Plaque forming units, Herpes simplex virus” value ([7]; 0.01 µM)?
A: The value was 68 PFU and 73 PFU and 61 PFU.

Q: What about the “Plaque forming units, Herpes simplex virus” value ([7]; 0.1 µM) of the same molecule?
A: The value was 48 PFU and 58 PFU and 55 PFU.

Q: And the “Plaque forming units, Herpes simplex virus” value ([7]; 1 µM)?
A: The value was 34 PFU and 30 PFU and 37 PFU.

Q: And the EC50 [7]?
A: The EC50 was 6.8 ± 0.2 µM.

Q: What about the inhibition at 10 µM [7] of the same molecule?
A: Its inhibition at 10 µM is 90%.

Q: What about the inhibition at 0.0001 µM ([7]; 0.0001 µM) of the same molecule?
A: Its inhibition at 0.0001 µM is 3.14%.

Q: What about the inhibition at 0.001 µM ([7]; 0.001 µM) of the same molecule?
A: The inhibition at 0.001 µM was 21.5%.

Q: And the inhibition at 0.01 µM ([7]; 0.01 µM)?
A: The inhibition at 0.01 µM was 29.9%.

Q: And the inhibition at 0.1 µM ([7]; 0.1 µM)?
A: Its inhibition at 0.1 µM is 44.1%.

Q: What about the inhibition at 1 µM ([7]; 1 µM) of the same molecule?
A: The inhibition at 1 µM was 64.9%.

Q: And the EC50 [3, 8]?
A: The EC50 was 0.001 µM.

Q: For `COc1ccc(-c2oc3cc(OC)c(OC)c(O)c3c(=O)c2OC)cc1OC` [PMF-OH, 5-hydroxy-3,6,7,3',4'-pentamethoxyflavone], which “Plaque forming units, Polio virus” value ([4]; 0.0001 µM) is on record?
A: Its value is 92 PFU and 95 PFU and 90 PFU.

Q: What about the “Plaque forming units, Polio virus” value ([4]; 0.001 µM) of the same molecule?
A: The value was 76 PFU and 70 PFU and 73 PFU.

Q: And the “Plaque forming units, Polio virus” value ([4]; 0.01 µM)?
A: The value was 42 PFU and 40 PFU and 48 PFU.

Q: What about the “Plaque forming units, Polio virus” value ([4]; 0.1 µM) of the same molecule?
A: The value was 23 PFU and 20 PFU and 26 PFU.

Q: What about the EC50 [4] of the same molecule?
A: The EC50 was 1.1 ± 0.03 µM.

Q: And the inhibition at 0.0001 µM ([4]; 0.0001 µM)?
A: The inhibition at 0.0001 µM was 0.1%.

Q: And the inhibition at 0.001 µM ([4]; 0.001 µM)?
A: The inhibition at 0.001 µM was 18.9%.

Q: And the inhibition at 0.01 µM ([4]; 0.01 µM)?
A: Its inhibition at 0.01 µM is 51.9%.

Q: And the inhibition at 0.1 µM ([4]; 0.1 µM)?
A: Its inhibition at 0.1 µM is 74.4%.

Q: What about the inhibition at 1 µM [4] of the same molecule?
A: Its inhibition at 1 µM is 96.3%.

Q: And the CC50 [5]?
A: Its CC50 is > 100 µM.

Q: And the CC50 [6]?
A: Its CC50 is 10 ± 0.58 µM.

Q: What about the “Plaque forming units, Herpes simplex virus” value ([7]; 0.0001 µM) of the same molecule?
A: The value was 96 PFU and 98 PFU and 90 PFU.

Q: What about the “Plaque forming units, Herpes simplex virus” value ([7]; 0.001 µM) of the same molecule?
A: The value was 80 PFU and 82 PFU and 86 PFU.

Q: What about the “Plaque forming units, Herpes simplex virus” value ([7]; 0.01 µM) of the same molecule?
A: The value was 76 PFU and 73 PFU and 70 PFU.

Q: What about the “Plaque forming units, Herpes simplex virus” value ([7]; 0.1 µM) of the same molecule?
A: Its value is 67 PFU and 55 PFU and 50 PFU.

Q: What about the “Plaque forming units, Herpes simplex virus” value ([7]; 1 µM) of the same molecule?
A: The value was 10 PFU and 5 PFU.

Q: And the EC50 [7]?
A: The EC50 was 5.9 ± 0.1 µM.

Q: What about the inhibition at 10 µM [7] of the same molecule?
A: The inhibition at 10 µM was 60%.

Q: What about the inhibition at 0.0001 µM ([7]; 0.0001 µM) of the same molecule?
A: The inhibition at 0.0001 µM was 1.4%.

Q: What about the inhibition at 0.001 µM ([7]; 0.001 µM) of the same molecule?
A: Its inhibition at 0.001 µM is 13.9%.

Q: What about the inhibition at 0.01 µM ([7]; 0.01 µM) of the same molecule?
A: The inhibition at 0.01 µM was 24%.

Q: And the inhibition at 0.1 µM ([7]; 0.1 µM)?
A: The inhibition at 0.1 µM was 40.3%.

Q: What about the inhibition at 1 µM ([7]; 1 µM) of the same molecule?
A: The inhibition at 1 µM was 91.3%.

Q: And the EC50 [3, 8]?
A: The EC50 was 0.098 µM.

Q: For `C=C(C)C1CCC2(C)CCC3(C)C(=CCC4C5(C)CCC(O)C(C)(C)C5CCC43C)C12` (stereo not drawn) [Upa-12,20(29)-dien-3-ol, lupa-12,20(29)-dien-3-ol], which CC50 [1] is on record?
A: Its CC50 is > 100 µM.

Q: What about the CC50 [2] of the same molecule?
A: Its CC50 is > 100 µM.

Q: Which CC50 [1] does the source give for marcetol here?
A: Its CC50 is > 100 µM.

Q: And the CC50 [2]?
A: The CC50 was > 100 µM.
